Assay results as given in PMC11617653, “Macrocyclic Inhibitors Targeting the Prime Site of the Fibrinolytic Serine Protease Plasmin” (Chemmedchem, 2024).
Where “and” joins values, the source holds several entries; their conditions need not be identical. Equal entries are not always repeated.

Assays:
plasmin = settings: read-out: IC50, plasmin; Figure 1; cited from earlier work
[1] = biological target: activated protein C (aPC) (Homo sapiens, UniProt P04070); test: Selectivity: inhibition of activated protein C; type: biochemical; settings: deduced from pre-assays with only three inhibitor concentrations; read-out: aPC K i
Experimental: (§1) For these three proteases a selectivity index (SI=K i(protease)/K i(plasmin)) was calculated, which is provided in brackets after the inhibition constants (Table 3).
(§2) The measurements with the related trypsin‐like serine proteases trypsin, plasma kallikrein, factor XIa, thrombin, activated protein Ca and factor Xa used in selectivity studies were performed as described previously.[11, 12]

factor XIa (fXIa) = factor XIa (fXIa) (Homo sapiens, UniProt P03951); test: Selectivity: inhibition of factor XIa; type: biochemical; settings: for fXIa selectivity index K i(protease)/Ki(plasmin): in brackets; for Ki: read-out: fXIa K i
Experimental: as §1, §2

plasma kallikrein (PK) = plasma kallikrein (PK) (Homo sapiens, UniProt P03952); test: Selectivity: inhibition of plasma kallikrein; type: biochemical; settings: for PK selectivity index K i(protease)/Ki(plasmin): in brackets; for Ki: read-out: PK K i
Experimental: as §1, §2

thrombin = thrombin (Homo sapiens, UniProt P00734); test: Selectivity: inhibition of thrombin; type: biochemical; settings: deduced from pre-assays with only three inhibitor concentrations; read-out: Thrombin K i
Experimental: as §1, §2

factor Xa (fXa) = factor Xa (fXa) (Homo sapiens, UniProt P00742); test: Selectivity: inhibition of factor Xa; type: biochemical; settings: deduced from pre-assays with only three inhibitor concentrations; read-out: fXa K i
Experimental: as §1, §2

human plasmin = biological target: T1, human plasmin (Homo sapiens, UniProt P00747); test: Inhibition of human plasmin, fluorogenic substrate Mes-DArg-Phe-Arg-AMC; type: biochemical
T1 construct: purchased Calbiochem
Experimental: All inhibitors prepared in this study act as reversible competitive plasmin inhibitors, their K i values were calculated by fitting the steady‐state velocities as function of the inhibitor concentrations using equation 1. 4‐aminophenylalanine (Phe(4‐NH2)) was incorporated as P1’ residue in the first inhibitor series, which enabled a macrocyclization via amide bond formation from its side chain amino group using various linker segments and P2’ residues (Table 1). […] The improved potency of SFTI‐1 analogues with basic P2’ residues[9] stimulated the incorporation of Arg in that position leading to inhibitor 4 with a slightly stronger inhibitory potency. A significant improvement could be achieved when using 3‐ or 4‐aminophenylacetic acid as P2’ group in combination with elongated linker residues (5‐6). […] However, inhibitor 9 is a twofold stronger plasmin inhibitor compared to its analogue 8.
For these inhibitors the steady‐state velocities were calculated by fitting the progress curves to equation 2 providing an additional apparent first‐order rate constant k obs for each curve. The steady‐state rates were used for K i determination with equation 1 and the k obs values for the calculation of the association rate constants k on according to equation 3. The dissociation rate constant k off was calculated from the known K i and k on values using equation 4. The enzyme kinetic evaluation of slow‐binding inhibitors of plasmin has already been described in detail in our two previous publications.[11, 12]
All measurements were conducted as triplicates in black 96‐well FluoroNunc MaxiSorp plates (Nunc, Langenselbold, Germany) and suitable fluorogenic substrates at room temperature. […] Each well contained a total volume of 180 μL consisting of 100 μL of inhibitor dissolved in buffer, 40 μL of the substrate Mes‐DArg‐Phe‐Arg‐AMC[11] (100 μM in assay, KM=16.1 μM) dissolved in water and 40 μL of plasmin solution (0.27 nM in assay). The following equations were used for the enzyme kinetic analysis as described in the results section and in our previous publications.[11, 12] (1) [drawing 71] (2) [drawing 72] (3) [drawing 73] (4) [drawing 74]

[2] = Water solubility (qualitative comparison); settings: compared to inhibitor 28
PK = settings: no reference given; read-out: K i, PK; cited from earlier work
[3] = K i (nM), inhibition of plasmin, series two, substituted Bpa in P1', and acyclic analogues, steady-state velocities, equation 1
[4] = Plasmin K i, Table 3 selectivity

T1 sequence (P00747 581-810): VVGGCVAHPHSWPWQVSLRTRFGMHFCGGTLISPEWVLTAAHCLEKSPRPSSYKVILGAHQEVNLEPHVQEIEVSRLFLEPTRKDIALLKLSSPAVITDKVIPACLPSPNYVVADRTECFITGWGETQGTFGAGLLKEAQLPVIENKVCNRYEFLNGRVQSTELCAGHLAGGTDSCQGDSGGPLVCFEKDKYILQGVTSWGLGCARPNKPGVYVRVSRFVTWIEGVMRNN
T1 sequence (P00747 97-580): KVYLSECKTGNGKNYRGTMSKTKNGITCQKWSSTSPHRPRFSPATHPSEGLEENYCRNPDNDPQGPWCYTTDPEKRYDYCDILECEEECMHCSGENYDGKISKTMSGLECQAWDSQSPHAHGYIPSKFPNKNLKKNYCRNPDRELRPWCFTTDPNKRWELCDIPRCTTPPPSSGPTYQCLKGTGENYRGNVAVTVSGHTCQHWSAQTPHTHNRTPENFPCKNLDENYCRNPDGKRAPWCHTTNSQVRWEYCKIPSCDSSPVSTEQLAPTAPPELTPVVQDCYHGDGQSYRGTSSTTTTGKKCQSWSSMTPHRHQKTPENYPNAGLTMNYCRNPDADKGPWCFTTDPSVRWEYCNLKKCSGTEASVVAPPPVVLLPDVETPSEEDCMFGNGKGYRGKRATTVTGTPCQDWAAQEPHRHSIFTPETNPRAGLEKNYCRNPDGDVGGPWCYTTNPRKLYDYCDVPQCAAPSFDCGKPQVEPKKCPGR
Sequence of factor Xa (fXa) (P00742 41-179): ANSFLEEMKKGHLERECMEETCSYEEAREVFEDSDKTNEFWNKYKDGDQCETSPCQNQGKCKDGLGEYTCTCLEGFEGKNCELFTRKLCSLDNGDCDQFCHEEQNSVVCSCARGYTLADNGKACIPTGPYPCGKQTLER
Sequence of factor Xa (fXa) (P00742 235-488): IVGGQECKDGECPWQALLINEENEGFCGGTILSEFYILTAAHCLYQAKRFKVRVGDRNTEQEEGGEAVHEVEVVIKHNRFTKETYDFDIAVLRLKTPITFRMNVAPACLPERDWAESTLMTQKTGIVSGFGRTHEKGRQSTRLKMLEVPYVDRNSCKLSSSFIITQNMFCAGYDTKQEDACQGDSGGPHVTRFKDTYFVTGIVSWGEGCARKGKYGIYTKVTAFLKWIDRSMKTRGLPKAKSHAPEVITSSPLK
Sequence of activated protein C (aPC) (P04070 43-197): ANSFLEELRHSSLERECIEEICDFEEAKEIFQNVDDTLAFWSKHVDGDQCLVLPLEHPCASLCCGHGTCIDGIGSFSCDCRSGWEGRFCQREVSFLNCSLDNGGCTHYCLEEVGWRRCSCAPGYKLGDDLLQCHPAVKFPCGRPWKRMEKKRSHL
Sequence of activated protein C (aPC) (P04070 212-461): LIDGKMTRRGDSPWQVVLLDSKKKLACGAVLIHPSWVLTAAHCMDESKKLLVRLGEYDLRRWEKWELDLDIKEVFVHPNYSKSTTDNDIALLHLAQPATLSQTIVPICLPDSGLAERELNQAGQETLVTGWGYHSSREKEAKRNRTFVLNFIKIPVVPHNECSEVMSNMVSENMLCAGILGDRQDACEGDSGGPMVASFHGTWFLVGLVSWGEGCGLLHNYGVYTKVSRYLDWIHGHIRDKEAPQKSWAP
Sequence of plasma kallikrein (PK) (P03952 391-638): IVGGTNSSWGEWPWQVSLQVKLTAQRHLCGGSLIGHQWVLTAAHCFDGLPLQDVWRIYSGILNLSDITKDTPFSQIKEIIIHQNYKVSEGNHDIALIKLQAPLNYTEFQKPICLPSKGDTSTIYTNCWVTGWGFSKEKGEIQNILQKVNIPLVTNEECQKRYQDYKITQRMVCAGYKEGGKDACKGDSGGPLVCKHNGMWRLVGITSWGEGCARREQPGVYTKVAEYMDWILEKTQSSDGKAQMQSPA
Sequence of plasma kallikrein (PK) (P03952 20-390): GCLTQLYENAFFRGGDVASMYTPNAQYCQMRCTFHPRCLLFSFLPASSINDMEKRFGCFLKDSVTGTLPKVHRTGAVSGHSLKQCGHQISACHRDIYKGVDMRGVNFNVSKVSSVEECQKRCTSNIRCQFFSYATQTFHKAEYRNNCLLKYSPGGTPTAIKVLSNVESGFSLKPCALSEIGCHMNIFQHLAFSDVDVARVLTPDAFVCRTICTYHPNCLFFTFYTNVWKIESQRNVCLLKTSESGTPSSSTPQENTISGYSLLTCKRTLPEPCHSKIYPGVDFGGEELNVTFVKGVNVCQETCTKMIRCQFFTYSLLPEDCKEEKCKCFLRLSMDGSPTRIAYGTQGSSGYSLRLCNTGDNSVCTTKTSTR
Sequence of factor XIa (fXIa) (P03951 19-387): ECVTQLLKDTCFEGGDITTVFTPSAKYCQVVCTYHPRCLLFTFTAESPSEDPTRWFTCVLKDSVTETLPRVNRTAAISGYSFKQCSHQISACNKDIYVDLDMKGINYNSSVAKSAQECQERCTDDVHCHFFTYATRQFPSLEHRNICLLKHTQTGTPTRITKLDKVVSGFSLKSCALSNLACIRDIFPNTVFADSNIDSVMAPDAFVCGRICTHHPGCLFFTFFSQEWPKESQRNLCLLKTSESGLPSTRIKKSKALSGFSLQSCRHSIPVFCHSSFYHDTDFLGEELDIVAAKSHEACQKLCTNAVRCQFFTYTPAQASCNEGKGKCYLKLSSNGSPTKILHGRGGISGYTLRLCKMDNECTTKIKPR
Sequence of factor XIa (fXIa) (P03951 388-625): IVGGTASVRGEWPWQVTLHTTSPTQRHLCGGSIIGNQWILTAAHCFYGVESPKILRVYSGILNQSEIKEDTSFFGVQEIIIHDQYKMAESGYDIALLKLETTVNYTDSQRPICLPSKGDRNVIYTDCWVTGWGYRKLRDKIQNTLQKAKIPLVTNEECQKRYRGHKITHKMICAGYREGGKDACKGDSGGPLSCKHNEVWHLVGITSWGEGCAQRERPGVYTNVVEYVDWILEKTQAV

Ki [1]	fXIa selectivity index K i(protease)/Ki(plasmin) (factor XIa (fXIa))	Ki (factor XIa (fXIa))	PK selectivity index K i(protease)/Ki(plasmin) (plasma kallikrein (PK))	Ki (plasma kallikrein (PK))	Ki (thrombin)	Ki (factor Xa (fXa))	Ki (human plasmin; [3])	Ki (human plasmin; [4])	fold stronger plasmin inhibition than acyclic analogues 46 and 47 (human plasmin)	Compound	IC50 (plasmin)	water solubility [2]	Ki (PK)
–	–	–	–	–	–	–	–	–	–	CCCCCCCCNC(=O)[C@H](Cc1ccc(OCc2ccncc2)cc1)NC(=O)[C@H]1CC[C@H](CN)CC1 [YO-2]	0.24 µM	–	–
–	–	–	–	–	–	–	–	–	–	aprotinin	–	–	0.03 µM
> 40 µM	13	0.11 ± 0.01 µM	14	0.12 ± 0.01 µM	> 80 µM	> 9 µM	9.47 ± 0.75 nM	9.47 nM	–	Cc1ccc2cc1NC(=O)CNC(=O)CCCNC(=O)Cc1cccc(c1)NC(=O)[C@@H](NC(=O)[C@H]1CC[C@H](CN)CC1)Cc1ccc-2cc1 [inhibitor 40]	–	–	–
> 35 µM	49	0.041 ± 0.0032 µM	38	0.031 ± 0.014 µM	> 60 µM	> 8 µM	0.83 nM and 0.832 nM	0.832 nM	approximately 75 fold	Cc1ccc2cc1NC(=O)CNC(=O)CCCNC(=O)Cc1ccc(cc1)NC(=O)[C@@H](NC(=O)[C@H]1CC[C@H](CN)CC1)Cc1ccc-2cc1 [inhibitor 28]	–	–	–

Compound	Ki [1]	fXIa selectivity index K i(protease)/Ki(plasmin) (factor XIa (fXIa))	Ki (factor XIa (fXIa))	PK selectivity index K i(protease)/Ki(plasmin) (plasma kallikrein (PK))	Ki (plasma kallikrein (PK))	Ki (thrombin)	Ki (factor Xa (fXa))	Ki (human plasmin; [3])	Ki (human plasmin; [4])	fold stronger plasmin inhibition than acyclic analogues 46 and 47 (human plasmin)	IC50 (plasmin)	water solubility [2]	Ki (PK)
Cc1ccc2cc1NC(=O)C(CCc1ccccc1)NC(=O)CCCNC(=O)Cc1ccc(cc1)NC(=O)C(NC(=O)C1CCC(CN)CC1)Cc1ccc-2cc1 (stereo not shown) [inhibitor 31]	> 10 µM	117	0.088 ± 0.023 µM	89	0.067 ± 0.004 µM	> 75 µM	> 80 µM	0.831 ± 0.154 nM	0.831 nM	–	–	reduced water solubility	–
